Results as given in patent publication US20210246109A1, “POTENT AND SELECTIVE INHIBITORS OF CYTOCHROME P450” (University of Kentucky Research Foundation, priority 2020, published 2021).
Read-outs that look alike come from different tables or passages of the source.

Tests used:
Format in all cases: cell-based
[1] = molecular target: T1, CYP1B1 (Homo sapiens, UniProt Q16678); experiment: EROD assay in inducible CYP1B1 cell line
T1 construct: expressed in transfected cells
T1 sequence (Q16678 1-543): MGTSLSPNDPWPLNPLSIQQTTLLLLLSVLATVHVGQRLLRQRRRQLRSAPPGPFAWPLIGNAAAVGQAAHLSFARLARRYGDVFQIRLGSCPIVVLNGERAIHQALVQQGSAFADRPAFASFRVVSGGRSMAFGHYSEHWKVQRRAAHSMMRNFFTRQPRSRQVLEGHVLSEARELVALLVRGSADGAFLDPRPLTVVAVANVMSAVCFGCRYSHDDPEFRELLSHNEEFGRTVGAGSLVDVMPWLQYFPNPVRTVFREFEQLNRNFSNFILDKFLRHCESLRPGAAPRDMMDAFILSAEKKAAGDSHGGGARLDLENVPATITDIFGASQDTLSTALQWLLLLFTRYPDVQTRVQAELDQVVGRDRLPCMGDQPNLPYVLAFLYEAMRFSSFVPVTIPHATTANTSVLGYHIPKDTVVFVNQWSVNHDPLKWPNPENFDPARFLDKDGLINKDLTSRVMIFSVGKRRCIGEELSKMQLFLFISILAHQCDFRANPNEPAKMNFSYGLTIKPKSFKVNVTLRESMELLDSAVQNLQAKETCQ
Description: (§1) The activity of the inhibitors was assessed in a novel cell based assay generated for the purpose of this project. Enzymatic turnover of CYP1B1 was measured using the ethoxy-resorufin-O-deethylase (EROD) assay with the fluorescent substrate, resorufin ethyl ether. Cell lines were generated where the gene for CYP1B1 alone or CYP1B1 and cytochrome P450 reductase (CPR) were both under the control of an inducible promoter. A cell line was generated for counter screening where the gene for CYP1A1 was used. CYP1A1 is the closest family member to CYP1B1.

[2] = molecular target: T2, CYP1A1 (Homo sapiens, UniProt P04798); experiment: EROD assay in CYP1A1 counter-screen cell line; settings: for SI 1B1:1A1: selectivity index
T2 construct: expressed in transfected cells
T2 sequence (P04798 1-512): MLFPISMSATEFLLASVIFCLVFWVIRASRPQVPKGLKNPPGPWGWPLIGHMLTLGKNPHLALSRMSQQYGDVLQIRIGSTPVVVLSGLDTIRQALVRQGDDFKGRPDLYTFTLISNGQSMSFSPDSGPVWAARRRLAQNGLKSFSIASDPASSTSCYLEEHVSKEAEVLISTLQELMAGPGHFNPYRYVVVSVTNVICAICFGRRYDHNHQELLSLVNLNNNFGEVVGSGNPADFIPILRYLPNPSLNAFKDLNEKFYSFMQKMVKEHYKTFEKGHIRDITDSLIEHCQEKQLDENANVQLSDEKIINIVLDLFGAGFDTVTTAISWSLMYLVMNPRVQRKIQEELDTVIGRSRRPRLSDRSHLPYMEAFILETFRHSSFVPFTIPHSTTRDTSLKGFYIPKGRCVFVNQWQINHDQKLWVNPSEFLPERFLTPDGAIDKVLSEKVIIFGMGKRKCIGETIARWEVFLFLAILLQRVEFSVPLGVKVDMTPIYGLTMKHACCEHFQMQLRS
Description: as §1

[3] = tested on: HEK; experiment: Cytotoxicity, resazurin, 72 hours after compound addition
Description: Cytotoxicity was assessed at 72 hours after compound addition using resazurin. The compounds that function as selective 1B1 inhibitors had no effect on cell health. This is an essential feature for any chemopreventative agent or molecules intended to block the detrimental action of an enzyme.

[4] = Table 2, EROD assay, read-out: IC50 CYP1A1
[5] = Table 2, EROD assay, read-out: IC50 CYP1B1

| SMILES | IC50 ([1]; Table 3, read-out: IC50 1B1) | IC50 ([2]; Table 3, read-out: IC50 1A1) | other results |
| --- | --- | --- | --- |
| [N-]=[N+]=NCCCOc1ccc(-c2nc3ccccc3c(=O)[nH]2)cc1 [GL627] | 0.0061 µM | – | – |
| N#CCOc1nc(-c2ccc(OCCCN=[N+]=[N-])cc2)nc2ccccc12 [GL628] | 0.126 µM | – | – |
| N#CCOc1ccc(-c2nc(-c3cccnc3)cs2)cc1 [GL641] | – | – | IC50 [2, 4]: 2.61 µM; SI 1B1:1A1 [2]: 6833; IC50 [1, 5]: 0.000381 µM |
| O=c1[nH]c(-c2ccc(Cl)cc2)nc2ccccc12 [GL642] | 0.022 µM | 0.085 µM | – |
| N#CCOc1nc(-c2ccc(Cl)cc2)nc2ccccc12 [GL643] | 0.0001 µM | 0.125 µM | – |
| N#Cc1ccc(-c2csc(-c3ccc(O)cc3)n2)cc1 [GL649] | – | – | IC50 [2, 4]: 16.4 µM; SI 1B1:1A1 [2]: 17.6; IC50 [1, 5]: 0.931 µM |
| O=c1[nH]c(-c2ccc3ccccc3n2)nc2ccccc12 [GL651] | 0.0028 µM | 1.1 µM | – |
| N#CCOc1ccc(/C=C/c2ccc(COC#N)cc2COC#N)cc1 [GL652] | 0.019 µM | 1.86 µM | – |
| N#Cc1ccc(-c2csc(-c3cccnc3)n2)cc1 [GL656] | – | – | IC50 [1, 5]: 0.391 µM |
| Cn1c(-c2ccc3ccccc3n2)nc2ccccc2c1=O [GL659] | > 1 µM | > 10 µM | – |
| C#CCOc1ccc(-c2nc(-c3ccc(C#N)cc3)cs2)cc1 [GL664] | – | – | IC50 [2, 4]: 0.696 µM; SI 1B1:1A1 [2]: 3.44; IC50 [1, 5]: 0.202 µM |
| Fc1ccc(-c2csc(-c3ccccn3)n2)cc1C(F)(F)F [GL666] | – | – | IC50 [2, 4]: 0.24 µM; SI 1B1:1A1 [2]: 2.86; IC50 [1, 5]: 0.0838 µM |
| COc1ccc(-c2nc(-c3ccc(O)cc3)cs2)c(OC)c1 [GL673] | – | – | IC50 [1, 5]: 0.101 µM |
| Oc1ccc(-c2nc(-c3ccc(F)c(C(F)(F)F)c3)cs2)cc1 [GL678] | – | – | IC50 [2, 4]: 14.7 µM; SI 1B1:1A1 [2]: 70.5; IC50 [1, 5]: 0.208 µM |
| O=c1[nH]c(-c2ccc(F)c(C(F)(F)F)c2)nc2ccccc12 [GL-700] | 0.041 µM | 2.3 µM | – |
| N#CCOc1nc(-c2ccc(F)c(C(F)(F)F)c2)nc2ccccc12 [GL-701] | – | 0.25 µM | – |
| Fc1ccc(-c2nc3ccccc3[nH]2)cc1C(F)(F)F [GL-706] | 0.085 µM | 0.32 µM | – |
| c1ccc2nc(-c3nc4ccccc4[nH]3)ccc2c1 [GL-707] | 0.044 µM | 0.76 µM | – |
| COc1cc(C(=O)/C=C/c2ccc3ccccc3n2)cc(OC)c1OC [GL-713] | 0.55 µM | 3 µM | – |
| COc1ccc(/C=C/C(=O)c2cc(OC)c(OC)c(OC)c2)c(OC)c1 [GL-714] | 1.1 µM | 5.2 µM | – |
| Oc1nc(-c2ccc(F)cc2)nc2ccccc12 [GL-717] | 1.9 µM | 3.9 µM | – |
| N#CCOc1nc(-c2ccc(F)cc2)nc2ccccc12 [GL-718] | 0.85 µM | 0.015 µM | – |
| Fc1ccc(-c2nc3ccccc3[nH]2)cc1 [GL-719] | 3 µM | 5.2 µM | – |
| O=c1[nH]c(-c2cccc(C(F)(F)F)c2)nc2ccccc12 [GL-728] | 0.2 µM | – | – |
| N#CCOc1nc(-c2cccc(C(F)(F)F)c2)nc2ccccc12 [GL-729] | – | 0.05 µM | – |
| N#CCOc1ccc(-c2nc(OCC#N)c3ccccc3n2)cc1 [GL- 561] | – | 3.6 µM | – |
| COc1cc(/C=C/c2ccc(OC)cc2OC)cc(OC)c1 [TMS, reference compound] | – | – | IC50 ([3]; Table 1, 72 hours, resazurin, read-out: Cytotoxicity IC50): 10 µM; IC50 ([3]; Table 3, HEK, read-out: HEK cytotoxicity): > 10 µM; IC50 ([1]; Table 1, read-out: CYP1B1 IC50): 0.0083 µM |
